Reference: patent publication EP0114002B1, “Benzothiopyrano(4,3,2,-cd)indazoles, their pharmaceutical compositions and methods for their production” (WARNER-LAMBERT COMPANY, priority 1983, dated 1984)
Counter-ions that a name gives are not always drawn. Like-named read-outs stand apart in the source and are kept apart here.

What was measured:
[1] = system: lymphocytic leukemia P388; experiment: in vivo lymphocytic leukemia P388 test; parameters: species or system mice; conditions: Mus musculus, P388, ip, 120 h, read-out: P388 in vivo T/C × 100; for response vs control in vivo at 6.25 mg/kg: Dose 6.25 mg/kg intraperitoneally once daily for five days; for response vs control in vivo at 12.5 mg/kg: Dose 12.50 mg/kg intraperitoneally once daily for five days; for response vs control in vivo at 25 mg/kg: Dose 25.00 mg/kg intraperitoneally once daily for five days; for response vs control in vivo at 50 mg/kg: Dose 50.00 mg/kg intraperitoneally once daily for five days; for response vs control in vivo at 100 mg/kg: Dose 100.00 mg/kg intraperitoneally once daily for five days; for response vs control in vivo at 3.12 mg/kg: Dose 3.12 mg/kg intraperitoneally once daily for five days
Procedure: Another test protocol is the in vivo lymphocytic leukemia P388 test. The animals used are either male or female CD2F, mice. There are six or seven animals per test group. The tumor transplant is by intraperitoneal injection of dilute ascitic fluid containing cells of lymphocytic leukemia P388. The test compounds are administered intraperitoneally once daily for five consecutive days at various doses following tumor inoculation. The animals are weighed and survivors are recorded on a regular basis for 30 days. A compound is designated "toxic" if, at a given dose, all animals died prior to four days after the first injection of drug. A ratio of survival time for treated (T)/control (C) animals is calculated. A criterion for efficacy is a ratio T/C times 100 greater than or equal to 125. See Cancer Chemotherapy Reports, Part 3, 3; 1 (1972) for a comprehensive discussion of the protocol.

L1210 cells = experiment: L1210 murine leukemia cell growth inhibition in vitro; format: cell-based; conditions: Mus musculus, 72 h
Procedure: Another test protocol uses L1210 cells, a murine leukemia cell line, grown in RPMI 1640 supplemented with 5% fetal bovine serum and gentamicin ([…]). Drug dilutions are prepared in the appropriate solvent and 20 µl of each dilution are added to 24-well Linbro tissue culture plates, followed by the addition of 2.0 ml of cell suspension containing 3 x 10^4 cells per ml. Solvent and medium controls are included in each test. After incubation at 37°C forthree days in 5% C02, the contents of each well are removed and the cells counted in a ZBI Coulter counter. Percent growth are calculated relative to the controls and the levels of drug activity are expressed as ID50 in moles per liter.

HCT-8 cells = experiment: in vitro proliferating human colon adenocarcinoma (HCA) cell screen; format: cell-based
Procedure: One test protocol is the in vitro proliferating human colon adenocarcinoma (HCA) cell screen. In this test, HCT-8 cells (HCA cell line received from Yale University) are trypsinized using trypsin-EDTA. A single cell suspension is achieved by passing the cells through a 26 gauge needle with a 20 cc syringe. A cell suspension is prepared using RPMI 1640 + 10% FCS + 50) g/ml gentamicin sulfate with a cell concentration of approximately 30,000 cells/ml. The cell suspension is dispensed in Linbro 24-well plates; 1 ml/well. The plates are incubated for approximately 48 hours at 37°C in a 5% C02 atmosphere. At this time test compounds are added in the appropriate concentration. Five µl of the 200 µg/ml stock solution is added to each well in primary test. Ten µl of the appropirate dilution is added to each well for a titration test. The plates are re-incubated an additional 60 to 65 hours at 37°C in a 5% C02 atmosphere. The cells are lysed using a mix of cationic surfactant, glacial acetic acid, and sodium chloride. Two ml of the lysed cell suspension from each well is added to 8 ml of diluent. The number of nuclei is determined using a Coulter counter (ZBI model), and a percent growth for each drug concentration is calculated. From this, an ID50 molar concentration of a compound (that results in 50% inhibition of growth) is determined.

Bacillus subtilis 04555 = experiment: in vitro antibacterial/antifungal (ABF) agar-disk diffusion test; format: cell-based; conditions: 0.1 mg/ml, read-out: ABF Zone Diameter (cont. in mg/ml) B. Sub-tilis
Procedure: (§1) Still another test protocol is the in vitro antibacterial/antifungal (ABF) test. Compounds are tested for antimicrobial activity in an agar-disk diffusion assay, a standard microbiological technique for testing antibiotics'. After incubation of each culture with a test compound, a zone of inhibition is determined. The zone diameter (mm) of active compounds ranges from a minimum of 13.5 mm to as high as 60 mm, with a greater diameter reflecting higher activity. For convenience, values are reported for two gram-negative bacteria (Aerobacter aerogenes 0126 and Escherichia coli 04863), two gram-positive bacteria (Bacillus subtilis 04555 and Streptococcus faecalis 05045 utilizing AM-09 medium), and one mycelial fungus (Penicillium avellaneum M2988).

[2] = system: Aerobacter aerogenes 0126; experiment: as above; format: cell-based; conditions: Klebsiella aerogenes, 0.1 mg/ml, read-out: ABF Zone Diameter (cont. in mg/ml) A. Aero-genes
Procedure: as §1

[3] = system: Streptococcus faecalis 05045; experiment: as above; format: cell-based; conditions: Enterococcus faecalis, AM-09 medium, 3 mg/ml, read-out: ABF Zone Diameter (cont. in mg/ml) S. Fae-calis
Procedure: as §1

[4] = system: Penicillium avellaneum M2988; experiment: as above; format: cell-based; conditions: Hamigera avellanea, 3 mg/ml, read-out: ABF Zone Diameter (cont. in mg/ml) P. Avell-aneum
Procedure: as §1

Escherichia coli 04863 = experiment: as above; format: cell-based; conditions: 0.1 mg/ml, read-out: ABF Zone Diameter (cont. in mg/ml) E. Coli
Procedure: as §1

[5] = Table 1, three days incubation, 50% inhibition of growth, read-out: L1210 in vitro ID50
[6] = Table 1, 60 to 65 hours with compound, 50% inhibition of growth, read-out: HCA—3 in vitro ID50
[7] = Table 2, three days incubation, read-out: L1210 in vitro IC50
[8] = Table 2, 60 to 65 hours with compound, read-out: HCA—3 in vitro IC50

Row | IC50 (L1210 cells; [5]) [nM] | IC50 (HCT-8 cells; [6]) [nM] | SMILES | response vs control in vivo at 12.5 mg/kg [1] [%] | IC50 (L1210 cells; [7]) [nM] | IC50 (HCT-8 cells; [8]) [nM] | response vs control in vivo at 25 mg/kg [1] [%] | other results
1 |  |  | CCN(CC)CCn1nc2c3c(c(NCCN)ccc31)Sc1ccc(OC)cc1-2 [CH2CH2N(C2H5)2 / NHCH2CH2NH2 / 9-OCH3] | 177 | 210 | 290 |  | 
2 | 71 | 300 | CCNCCn1nc2c3c(c(N)ccc31)Sc1ccccc1-2 [CH2CH2NHC2H5 / NO2 / C17H18N4S·2HCl] | 188 |  |  |  | 
3 |  |  | CCN(CC)CCn1nc2c3c(c(NCCN4CCOC4=O)ccc31)Sc1ccc(O)cc1-2 [CH2CH2N(C2H5)2 / [drawing] / 9-OH, 3-[2-[[2-[2-(diethylamino)ethyl]-9-hydroxy-2H[1]benzothiopyrano[4,3,2-cd]indazol-5-yl]amino]ethyl]-2-oxazolidinone] | 175 | 5.5 | 24 |  | 
4 |  |  | CCN(CC)CCn1nc2c3c(c(NCCNCCO)ccc31)Sc1ccc(OC)cc1-2 [2-[[2-[[2-(2-(Diethylamino)ethyl]-9-methoxy-2H[1]benzothiopyrano[4,3,2-cd]indazol-5-yl]amino]ethyl]amino]ethanol] |  | 200 | 230 | 177 | 
5 |  |  | CCN(CC)CCn1nc2c3c(c(N)ccc31)Sc1ccc(O)cc1-2 [CH2CH2N(C2H5)2 / NH2 / 9-OH, 5-Amino-2-[2-(diethylamino)ethyl]-2H[1]benzothiopyrano[4,3,2-cd]indazol-9-ol] |  | 12 | 28 |  | response vs control in vivo at 6.25 mg/kg [1]: 238%
6 |  |  | CCN(CC)CCn1nc2c3c(c(N)ccc31)Sc1ccc(OC)cc1-2 [CH2CH2NHCH2CH2OH / NH2 / 9-OCH3, 5-Amino-N,N-diethyl-9-methoxy-2H[1]benzothiopyrano[4,3,2-cd]indazole-2-ethanamine] |  | 1600 |  |  | response vs control in vivo at 50 mg/kg [1]: 154%
7 | 190 | 380 | CCN(CC)CCn1nc2c3c(c(NC(=O)CCl)ccc31)Sc1ccccc1-2 [CH2CH2N(C2H5)2 / NHCOCH2Cl, 2-Chloro-N-[2-[2-(diethylamino)ethyl]-2H[1]benzothiopyrano[4,3,2-cd]indazol-5-yl]acetamide] |  |  |  | 124 | response vs control in vivo at 50 mg/kg [1]: 165%
8 |  | 200 | NCCn1nc2c3c(c([N+](=O)[O-])ccc31)Sc1ccccc1-2 [CH2CH2NH2 / NO2 / 199—203, 5-Nitro-2H[1]benzothiopyrano[4,3,2-cd]indazole-2-ethanamine] |  |  |  |  | zone of inhibition at 100 µg/mL (Bacillus subtilis 04555): 17 mm; zone of inhibition at 100 µg/mL [2]: 18 mm; zone of inhibition at 3000 µg/mL [3]: 0 mm; zone of inhibition at 3000 µg/mL [4]: 0 mm; zone of inhibition at 100 µg/mL (Escherichia coli 04863): 15 mm
9 |  |  | CCN(CC)CCn1nc2c3c(c([N+](=O)[O-])ccc31)Sc1c(OC)ccc(O)c1-2 [CH2CH2N(C2H5)2 / NO2 / 7-OCH3, 10-OH, 2-[2-(diethylamino)-ethyl]-7-methoxy-5-nitro-2H[1]benzothiopyrano[4,3,2-cd]indazol-10-ol] |  | 1000 | 420 |  | 
10 | 24 | 140 | CCNCCn1nc2c3c(c([N+](=O)[O-])ccc31)Sc1ccccc1-2 [CH2CH2NHC2H5 / NO2 / C17H16N4O2S·HCl] | 187 |  |  |  | 
11 |  |  | CCN(CC)CCn1nc2c3c(c([N+](=O)[O-])ccc31)Sc1c(OC)ccc(OC)c1-2 [CH2CH2N(C2H5)2 / NO2 / 7,10-(OCH3)2, N,N-Diethyl-7,10-dimethoxy-5-nitro-2H[1]benzothiopyrano[4,3,2-cd]indazol-2-ethanamine] |  | 1300 | 500 |  | 
12 |  |  | CCN(CC)CCn1nc2c3c(c([N+](=O)[O-])ccc31)Sc1c(O)ccc(O)c1-2 [CH2CH2N(C2H5)2 / NO2 / 7,10-(OH)2] |  | 1700 |  |  | 
13 |  |  | NCCn1nc2c3c(c([N+](=O)[O-])ccc31)Sc1ccccc1-2 [CH2CH2NH2 / NO2 / >300] | 136 |  |  | 187 | 
14 |  |  | CCN(CC)CCn1nc2c3c(c(NCCN4CCOC4=O)ccc31)Sc1ccc(OC)cc1-2 [CH2CH2N(C2H5)2 / [drawing] / 9-OCH3, 3-[2-[[2-[2-(Diethylamino)ethyl]-9-methoxy-2H[1]benzothiopyrano[4,3,2-cd]indazol-5-yl]amino]ethyl]-2-oxazolidinone] |  |  | 1000 |  | response vs control in vivo at 100 mg/kg [1]: 220%
15 |  |  | CCN(CC)CCn1nc2c3c(c([N+](=O)[O-])ccc31)Sc1ccc(OC)cc1-2 [CH2CH2NHCH2CH2OH / NO2 / C20H22N4O3S, N,N-Diethyl-9-methoxy-5-nitro-2H[1]benzothiopyrano[4,3,2-cd]indazole-2-ethanamine] | 142 | 640 |  | 209 | 
16 | 190 | 210 | CN(C)CCCn1nc2c3c(c([N+](=O)[O-])ccc31)Sc1ccccc1-2 [CH2CH2CH2N(CH3)2 / NO2, N,N dimethyl-5-nitro-2H[1]benzothiopyrano[4,3,2-cd]indazole-2-propanamine] |  |  |  | 121 | response vs control in vivo at 100 mg/kg [1]: 141%
17 | 290 | 880 | CCN(CC)CCn1nc2c3c(c(NCCCN)ccc31)Sc1ccccc1-2 [CH2CH2N(C2H5)2 / NHCH2CH2CH2NH2] | 154 |  |  | 169 | response vs control in vivo at 3.12 mg/kg [1]: 132%; response vs control in vivo at 6.25 mg/kg [1]: 142%

Row | SMILES | IC50 (L1210 cells; [5]) [nM] | IC50 (HCT-8 cells; [6]) [nM] | response vs control in vivo at 12.5 mg/kg [1] [%] | IC50 (L1210 cells; [7]) [nM] | IC50 (HCT-8 cells; [8]) [nM] | response vs control in vivo at 25 mg/kg [1] [%] | other results
18 | CN(C)CCCn1nc2c3c(c(NCCN)ccc31)Sc1ccccc1-2 [(CH2)3N(CH3)2 / NHCH2CH2NH2, N-[2-[3-(dimethylamino)propyl]-2H[1]benzothiopyrano[4,3,2-cd]indazol-5-yl]-1,2-ethanediamine] | 29 | 130 | 298 |  |  |  | response vs control in vivo at 6.25 mg/kg [1]: 185%
19 | CCN(CC)CCNc1ccc2c3c(nn2CCNCCO)-c2ccccc2Sc13 [CH2CH2NHCH2CH2OH / NHCH2CH2N(C2H5)2, 2-[[2-[5-[[2-(Diethylamino)ethyl]amino]-2H[1]benzothiopyrano[4,3,2-cd]indazol-2-yl]ethyl]amino]ethanol] | 240 | 450 | 135 |  |  | 147 | response vs control in vivo at 3.12 mg/kg [1]: 134%; response vs control in vivo at 6.25 mg/kg [1]: 137%
